The values that follow come from PMC6800282, “Make the right measurement: Discovery of an allosteric inhibition site for p300-HAT” (Structural Dynamics, 2019).

Values joined by “and” are separate entries in the source; they are usually repeats but may differ in a detail not shown here. Equal values may be shown once.

The target of experiment [1] is T1, P300-HAT domain (Homo sapiens, UniProt Q09472).
T1 sequence (Q09472 1287-1666): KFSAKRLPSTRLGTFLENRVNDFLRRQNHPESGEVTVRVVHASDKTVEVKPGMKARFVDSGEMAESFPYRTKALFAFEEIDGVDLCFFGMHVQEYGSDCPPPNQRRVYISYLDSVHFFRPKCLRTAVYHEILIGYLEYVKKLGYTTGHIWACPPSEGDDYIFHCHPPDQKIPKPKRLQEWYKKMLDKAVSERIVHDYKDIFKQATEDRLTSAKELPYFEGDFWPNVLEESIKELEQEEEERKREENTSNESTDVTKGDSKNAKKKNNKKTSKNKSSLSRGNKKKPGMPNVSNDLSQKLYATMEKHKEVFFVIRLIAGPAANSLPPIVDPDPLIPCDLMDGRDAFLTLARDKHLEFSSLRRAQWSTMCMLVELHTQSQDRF
Kind of experiment: Dynamic scanning fluorimetry (DSF). The class given is binding. Particulars: for ΔTm at 250 µM: compound at 250 μM. From the text: Additionally, given their small size, it seemed unlikely that CPI-076 and CPI-090 blocked both sites.

For experiment [2], the target named is T2, full-length human p300 (FL-P300) (Homo sapiens, UniProt Q09472).
T2 construct: polyhistidine tag with TEV site (HisTev) (N); StrepII (C); made in house; host or cells: Sf9 insect cells (baculovirus)
T2 sequence (Q09472 whole entry): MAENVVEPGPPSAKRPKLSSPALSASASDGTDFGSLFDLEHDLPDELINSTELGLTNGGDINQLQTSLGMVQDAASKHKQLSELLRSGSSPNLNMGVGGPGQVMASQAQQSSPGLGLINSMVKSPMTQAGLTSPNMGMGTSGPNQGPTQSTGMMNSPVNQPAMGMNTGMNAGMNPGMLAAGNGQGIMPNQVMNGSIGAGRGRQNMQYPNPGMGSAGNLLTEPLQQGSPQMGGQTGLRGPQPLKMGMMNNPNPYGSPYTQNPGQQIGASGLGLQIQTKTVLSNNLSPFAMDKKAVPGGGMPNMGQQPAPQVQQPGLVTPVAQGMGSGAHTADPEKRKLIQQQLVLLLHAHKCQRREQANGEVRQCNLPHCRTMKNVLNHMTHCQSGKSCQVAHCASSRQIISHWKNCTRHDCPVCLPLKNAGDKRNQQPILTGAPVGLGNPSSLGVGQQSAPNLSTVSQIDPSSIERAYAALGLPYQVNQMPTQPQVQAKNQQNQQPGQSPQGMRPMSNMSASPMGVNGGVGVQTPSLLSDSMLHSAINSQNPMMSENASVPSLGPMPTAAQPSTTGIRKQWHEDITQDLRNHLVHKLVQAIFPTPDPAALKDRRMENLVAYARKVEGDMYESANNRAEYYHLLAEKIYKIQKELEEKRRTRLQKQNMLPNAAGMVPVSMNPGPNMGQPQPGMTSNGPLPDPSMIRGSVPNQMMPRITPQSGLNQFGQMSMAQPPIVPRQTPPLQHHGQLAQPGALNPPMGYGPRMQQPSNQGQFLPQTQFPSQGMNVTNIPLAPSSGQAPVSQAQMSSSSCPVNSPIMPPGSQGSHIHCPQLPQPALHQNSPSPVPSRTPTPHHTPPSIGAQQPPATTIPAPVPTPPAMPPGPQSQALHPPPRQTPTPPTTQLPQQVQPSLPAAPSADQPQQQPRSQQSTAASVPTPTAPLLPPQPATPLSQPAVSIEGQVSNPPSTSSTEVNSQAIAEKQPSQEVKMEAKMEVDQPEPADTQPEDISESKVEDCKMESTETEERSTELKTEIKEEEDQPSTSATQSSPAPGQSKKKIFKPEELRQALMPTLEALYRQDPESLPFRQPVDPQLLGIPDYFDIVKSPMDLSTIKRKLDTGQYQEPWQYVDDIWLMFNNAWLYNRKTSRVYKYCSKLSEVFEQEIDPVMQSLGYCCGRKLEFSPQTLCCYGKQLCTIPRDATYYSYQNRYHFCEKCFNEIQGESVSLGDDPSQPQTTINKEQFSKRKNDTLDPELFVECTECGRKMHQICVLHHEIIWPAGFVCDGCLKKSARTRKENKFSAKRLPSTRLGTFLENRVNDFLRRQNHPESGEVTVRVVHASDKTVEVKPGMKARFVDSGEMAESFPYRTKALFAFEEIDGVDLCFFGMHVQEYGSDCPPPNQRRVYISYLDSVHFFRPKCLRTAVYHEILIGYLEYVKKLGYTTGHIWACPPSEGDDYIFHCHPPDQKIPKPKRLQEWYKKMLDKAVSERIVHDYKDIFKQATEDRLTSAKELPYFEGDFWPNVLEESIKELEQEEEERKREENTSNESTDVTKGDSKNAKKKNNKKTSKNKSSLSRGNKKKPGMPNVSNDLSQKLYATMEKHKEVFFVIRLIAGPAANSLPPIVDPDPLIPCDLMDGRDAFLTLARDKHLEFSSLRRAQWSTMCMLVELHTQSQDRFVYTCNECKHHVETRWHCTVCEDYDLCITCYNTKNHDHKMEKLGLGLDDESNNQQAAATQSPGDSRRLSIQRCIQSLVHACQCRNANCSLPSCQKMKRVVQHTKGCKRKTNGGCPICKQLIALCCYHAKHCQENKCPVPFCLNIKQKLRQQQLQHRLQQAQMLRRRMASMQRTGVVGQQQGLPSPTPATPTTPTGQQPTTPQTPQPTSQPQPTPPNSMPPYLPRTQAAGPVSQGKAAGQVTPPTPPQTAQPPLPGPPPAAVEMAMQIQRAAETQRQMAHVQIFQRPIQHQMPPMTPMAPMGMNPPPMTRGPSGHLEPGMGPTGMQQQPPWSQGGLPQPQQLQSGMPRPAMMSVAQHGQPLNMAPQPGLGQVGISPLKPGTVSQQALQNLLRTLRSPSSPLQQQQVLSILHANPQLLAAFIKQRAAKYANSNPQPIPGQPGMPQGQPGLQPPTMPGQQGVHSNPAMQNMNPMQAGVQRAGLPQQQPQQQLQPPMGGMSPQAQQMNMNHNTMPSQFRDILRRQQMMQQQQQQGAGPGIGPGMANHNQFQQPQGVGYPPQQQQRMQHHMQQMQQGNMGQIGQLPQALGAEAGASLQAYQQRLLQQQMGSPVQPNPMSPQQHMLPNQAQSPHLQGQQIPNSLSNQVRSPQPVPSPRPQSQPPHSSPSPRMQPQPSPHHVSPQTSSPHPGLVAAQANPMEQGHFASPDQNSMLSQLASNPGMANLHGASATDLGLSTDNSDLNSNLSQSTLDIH
Kind of experiment: Full-length p300 SPA. The class given is biochemical. As to conditions: for Inhibition of FL enzyme: full-length P300. From the text:
The sequence of 2414-residue full-length human p300 (FL-P300) was codon-optimized for insect cell expression and synthesized in three parts (Genscript). After assembly of the full-length sequence, the complete ORF was subcloned into a modified pTriEx vector (Novagen/EMD Millipore) to express FL-P300 with both an N-terminal, cleavable polyhistidine tag and C-terminal StrepII tag (HisTev-p300-Strep). Baculovirus was produced by co-transfection of the plasmid into Sf9 cells with linearized baculovirus BestBac2.0 (Expression Systems). The protein was expressed in Sf9 cells and purified with Talon Metal Affinity Resin (Clontech/Takara). The purified protein was concentrated to 1.6 mg/ml in storage buffer (50 mM Tris pH 8, 100 mM NaCl, 10% glycerol, and 0.5 mM TCEP).
At this point in the program, quantities of highly purified FL P300 were more readily available (preparation described above), and so HAT inhibitors were retested against FL P300 under optimized conditions. A large shift relative to the P300-HAT catalytic domain assay was observed.

The test system of experiment [3] is H3K18 acetylation in HCT116 cells. Description: Inhibition of H3K18 acetylation in HCT116 cells. As to conditions: Homo sapiens, HCT-116, read-out: H3K18Ac EC50. It is filed as cell-based.
Experiment [4] addresses CBP HAT (Homo sapiens, UniProt Q92793). Kind of experiment: CBP HAT SPA. It is filed as biochemical.
The target of experiment [5] is T3, WT P300 HAT domain (Homo sapiens, UniProt Q09472).
T3 construct: WT HAT construct = K1287-F1666 including the L1520-L1580 regulatory loop, expressed as HisTev fusion; HisTev (polyhistidine tag with TEV site); made in house
T3 sequence (Q09472 1287-1666): T1 sequence (Q09472 1287-1666)
Description: p300 HAT domain SPA catalytic assay with peptide substrate. The class given is biochemical. As to conditions: for Mechanism of inhibition (excess substrate MOI tests): 10× AcCoA, 30× histone peptide; for IC50: HAT domain construct K1287-F1666. The protocol:
To identify starting points for modulating p300/CBP activity, high throughput screening was carried out using the WT P300 HAT domain (WT HAT construct = K1287-F1666 including the L1520-L1580 regulatory loop, expressed as HisTev fusion) and a peptide substrate in a catalytic assay. After extensive triage, several validated inhibitor types were identified, one of which will be the focus of this report. A more detailed description of the HTS efforts will be the subject of a forthcoming publication by Huhn et al. At this stage of the project, only the HAT domain of p300 was used, as it was not yet feasible to obtain sufficient quantities of full-length P300 (FL-P300) to conduct a high-throughput screen of >150,000 compounds.

Where [6] appears, read: full-length enzyme, optimized conditions.

CBP HAT, sequence (Q92793 1323-1700 limits assumed): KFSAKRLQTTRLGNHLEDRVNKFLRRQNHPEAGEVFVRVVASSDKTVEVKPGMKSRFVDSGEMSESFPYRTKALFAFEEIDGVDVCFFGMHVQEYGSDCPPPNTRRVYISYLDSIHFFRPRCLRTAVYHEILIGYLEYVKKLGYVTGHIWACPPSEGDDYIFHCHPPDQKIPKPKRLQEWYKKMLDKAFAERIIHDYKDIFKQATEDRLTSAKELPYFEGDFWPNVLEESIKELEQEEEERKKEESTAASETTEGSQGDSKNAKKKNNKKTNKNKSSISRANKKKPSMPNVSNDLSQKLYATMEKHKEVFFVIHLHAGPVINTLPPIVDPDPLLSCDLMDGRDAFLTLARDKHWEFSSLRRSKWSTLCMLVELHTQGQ

In general, ΔTm refers to the change in melting temperature against a reference sample. As a reminder, the IC50 is the concentration that inhibits the measured activity by half. As a reminder, the EC50 is the concentration giving half of the maximal effect. `Cc1[nH]c2ccccc2c1-c1ncc(C(F)(F)F)cc1Cl` [CPI-090]: the “DSF stabilization” value in experiment [1] is recorded as “strong stabilization”. The ΔTm at 250 µM in experiment [1] is 5.8 °C. The “Inhibition of FL enzyme” value in experiment [2] is on record as “does not inhibit the FL enzyme”. Further, the IC50 in experiment [2] (setting [6]) was > 160 µM; in experiment [4], 0.74 µM; in experiment [5], 0.318 µM and 0.31 µM. Moreover, the EC50 in experiment [3] was > 30 µM. In experiment [5], the “Mechanism of inhibition (excess substrate MOI tests)” value was “AcCoA- and peptide-modulating compounds but not wholly competitive”.

As to `CC(=O)Nc1cccs1` [CPI-076], the ΔTm at 250 µM in experiment [1] was found to be 1.3 °C. Besides, the “Inhibition of FL enzyme” value in experiment [2] is “no measurable FL activity”. Moreover, in experiment [2] (setting [6]), the “FL p300 SPA IC50” value is recorded as “Undetectable”. Moreover, the results for the IC50 in experiment [4] and in experiment [5] were 39 µM and 20 µM, respectively. In addition, the “Mechanism of inhibition (excess substrate MOI tests)” value in experiment [5] was “AcCoA- and peptide-modulating compounds but not wholly competitive”.
